The values that follow come from US5698522A, “6-position modified decapeptide LHRH antagonists” (Abbott Laboratories, priority 1995, dated 1997).

*1 amine or outer side, *2 acyl side, *3 side chain or, on linkers, in order; H or OH if unused. Where a SMILES comes first, the peptide text is derived from it. Side-chain parts run from the residue outwards. [ ]: non-standard residue; d: D form. The star is where a group is joined. ξ: configuration not given here. Shikimoyl = O=C(C1=C[C@@H](O)[C@@H](O)[C@H](O)C1)*; Biotin = O=C1N[C@H]2[C@H](CS[C@H]2CCCCC(=O)*)N1; ξTetrahydrofuran2carbonyl = O=C(C1CCCO1)*; dPhe(4-Cl) = N[C@H](Cc1ccc(Cl)cc1)C(=O)O; d2Nal = N[C@H](Cc1ccc2ccccc2c1)C(=O)O; Lys(iPr) = CC(C)NCCCC[C@H](N)C(=O)O; NMeY = CN[C@@H](Cc1ccc(O)cc1)C(=O)O; Ethylenediamine = C(CN[*:2])N[*:1]; d3Pal = N[C@H](Cc1cccnc1)C(=O)O; Nicotinoyl = O=C(c1cccnc1)*; dOrn = NCCC[C@@H](N)C(=O)O; 2Furoyl = O=C(c1ccco1)*; CO = O=C([*:1])[*:2]; Ahx = NCCCCCC(=O)O; X2 = O=C(c1ccoc1)*; GABA = NCCCC(=O)O; azaGly = NNC(=O)O; βAla = NCCC(=O)O

For the experiment, the target named is T1, LHRH receptor (Rattus norvegicus, UniProt P30969).
T1 construct: endogenous in cells
T1 sequence (P30969 1-327): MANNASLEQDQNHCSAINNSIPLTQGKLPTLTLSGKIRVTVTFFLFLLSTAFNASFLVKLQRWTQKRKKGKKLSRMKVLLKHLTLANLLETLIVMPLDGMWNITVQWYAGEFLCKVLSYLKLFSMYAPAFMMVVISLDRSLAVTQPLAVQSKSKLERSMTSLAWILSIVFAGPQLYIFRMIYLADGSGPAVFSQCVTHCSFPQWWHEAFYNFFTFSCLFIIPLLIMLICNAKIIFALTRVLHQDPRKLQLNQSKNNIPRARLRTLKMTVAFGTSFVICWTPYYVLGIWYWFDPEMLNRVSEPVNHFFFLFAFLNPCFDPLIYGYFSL
Kind of experiment: in vitro LHRH antagonist potency (pA2) against the agonist leuprolide. It is filed as cell-based. The settings on record: negative logarithm of the antagonist concentration which shifts the response curve produced by the agonist leuprolide to two-fold higher concentration. In a few lines:
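Functional antagonism against the agonist leuprolide. pA2 is the negative log of antagonist concentration that shifts the leuprolide response curve to twofold higher concentration.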
For orientation: Kb means the affinity of an antagonist, worked out from how it opposes an agonist. As for `CC(=O)N[C@H](Cc1ccc2ccccc2c1)C(=O)N[C@H](Cc1ccc(Cl)cc1)C(=O)N[C@H](Cc1cccnc1)C(=O)N[C@@H](CO)C(=O)N(C)[C@@H](Cc1ccc(O)cc1)C(=O)N[C@H](CCCNC(=O)CNC(=O)c1cccnc1)C(=O)N[C@@H](CC(C)C)C(=O)N[C@@H](CCCCNC(C)C)C(=O)N1CCC[C@H]1C(=O)N[C@H](C)C(N)=O` [Example 54, NAc-D2Nal^1 -D4ClPhe^2 -D3Pal^3 -Ser^4 -NMeTyr^5 -DOrn(N-epsilon-Gly-Nicotinyl)^6 -Leu^7 -Lys(N-epsilon-Isopropyl)^8 -Pro^9 -DAla^10 NH2] (Ac-[d2Nal][dPhe(4-Cl)][d3Pal]S[NMeY][dOrn]([Gly-Nicotinoyl])L[Lys(iPr)]P[dA]-NH2), the Kb is 0.0302 nM.
As for `CC(=O)N[C@H](Cc1ccc2ccccc2c1)C(=O)N[C@H](Cc1ccc(Cl)cc1)C(=O)N[C@H](Cc1cccnc1)C(=O)N[C@@H](CO)C(=O)N(C)[C@@H](Cc1ccc(O)cc1)C(=O)N[C@H](CCCCNC(=O)NCCNC(=O)C1=C[C@@H](O)[C@@H](O)[C@H](O)C1)C(=O)N[C@@H](CC(C)C)C(=O)N[C@@H](CCCNC(=N)N)C(=O)N1CCC[C@H]1C(=O)N[C@H](C)C(N)=O` [Example 15, NAc-D2Nal^1 -D4ClPhe^2 -D3Pal^3 -Ser^4 -NMeTyr^5 -DLys[N-epsilon-(N'-Carbonyl-Diaminoethane-N"-Shikimyl)]^6 -Leu^7 -Arg^8 -Pro^9 -DAla^10 NH2] (Ac-[d2Nal][dPhe(4-Cl)][d3Pal]S[NMeY][dK]([CO-Ethylenediamine-Shikimoyl])LRP[dA]-NH2), the Kb is 0.00282 nM.
As for `CC(=O)N[C@H](Cc1ccc2ccccc2c1)C(=O)N[C@H](Cc1ccc(Cl)cc1)C(=O)N[C@H](Cc1cccnc1)C(=O)N[C@@H](CO)C(=O)N(C)[C@@H](Cc1ccc(O)cc1)C(=O)N[C@H](CCCCNC(=O)CCCCCNC(=O)CCNC(=O)c1cccnc1)C(=O)N[C@@H](CC(C)C)C(=O)N[C@@H](CCCCNC(C)C)C(=O)N1CCC[C@H]1C(=O)N[C@H](C)C(N)=O` [Example 19a, NAc-D2Nal-D4ClPhe^2 -D3Pal^3 -Ser^4 -NMeTyr^5 -DLys[N-epsilon-(N'-epsilon-Aminocaproyl)(N"-beta-Alanyl)-Nicotinyl]^6-Leu^7 -Lys(N-epsilon-Isopropyl)^8 -Pro^9 -DAla^10 NH2] (Ac-[d2Nal][dPhe(4-Cl)][d3Pal]S[NMeY][dK]([Ahx-βAla-Nicotinoyl])L[Lys(iPr)]P[dA]-NH2), the figure is 0.024 nM.
Next, `CC(=O)N[C@H](Cc1ccc2ccccc2c1)C(=O)N[C@H](Cc1ccc(Cl)cc1)C(=O)N[C@H](Cc1cccnc1)C(=O)N[C@@H](CO)C(=O)N(C)[C@@H](Cc1ccc(O)cc1)C(=O)N[C@H](CCCCNC(=O)CCCNC(=O)CNC(=O)c1ccco1)C(=O)N[C@@H](CC(C)C)C(=O)N[C@@H](CCCCNC(C)C)C(=O)N1CCC[C@H]1C(=O)N[C@H](C)C(N)=O` [Example 57e, NAc-D2Nal^1 -D4ClPhe^2 -D3Pal^3 -Ser^4 -NMeTyr^5 -DLys(N-epsilon-4-aminobutyryl-glycyl-furoyl)^6 -Leu^7 -Lys(Isp)^8 -Pro^9 -DAla^10 NH2] (Ac-[d2Nal][dPhe(4-Cl)][d3Pal]S[NMeY][dK]([GABA-Gly-2Furoyl])L[Lys(iPr)]P[dA]-NH2): 0.012 nM; `CC(=O)N[C@H](Cc1ccc2ccccc2c1)C(=O)N[C@H](Cc1ccc(Cl)cc1)C(=O)N[C@H](Cc1cccnc1)C(=O)N[C@@H](CO)C(=O)N(C)[C@@H](Cc1ccc(O)cc1)C(=O)N[C@H](CCCCNC(=O)[C@H](NC(=O)C1=C[C@@H](O)[C@@H](O)[C@H](O)C1)[C@H](C)O)C(=O)N[C@@H](CC(C)C)C(=O)N[C@@H](CCCNC(=N)N)C(=O)N1CCC[C@H]1C(=O)N[C@H](C)C(N)=O` [Example 48c, NAc-D2Nal^1 -D4ClPhe^2 -D3Pal^3 -Ser^4 -NMeTyr^5 -DLys(N-epsilon-D-Thr-Shikimyl)^6 -Leu^7 -Arg^8 -Pro^9 -DAla^10 NH2] (Ac-[d2Nal][dPhe(4-Cl)][d3Pal]S[NMeY][dK]([dT-Shikimoyl])LRP[dA]-NH2): 0.0288 nM; `CC(=O)N[C@H](Cc1ccc2ccccc2c1)C(=O)N[C@H](Cc1ccc(Cl)cc1)C(=O)N[C@H](Cc1cccnc1)C(=O)N[C@@H](CO)C(=O)N(C)[C@@H](Cc1ccc(O)cc1)C(=O)N[C@H](CCCCNC(=O)NNC(=O)C1CCCO1)C(=O)N[C@@H](CC(C)C)C(=O)N[C@@H](CCCCNC(C)C)C(=O)N1CCC[C@H]1C(=O)N[C@H](C)C(N)=O` (stereo partly drawn) [Example 5a, NAc-D2Nal^1 -D4ClPhe^2 -D3Pal^3 -Ser^4 -NMeTyr^5 -DLys(N-epsilon-Azagly-2-Tetrahydrofuroyl)^6 -Leu^7 -Lys(N-epsilon-Isopropyl)^8 -Pro^9 -DAla^10 NH2] (Ac-[d2Nal][dPhe(4-Cl)][d3Pal]S[NMeY][dK]([azaGly-ξTetrahydrofuran2carbonyl])L[Lys(iPr)]P[dA]-NH2): 0.0191 nM.
Regarding `CC(=O)N[C@H](Cc1ccc2ccccc2c1)C(=O)N[C@H](Cc1ccc(Cl)cc1)C(=O)N[C@H](Cc1cccnc1)C(=O)N[C@@H](CO)C(=O)N(C)[C@@H](Cc1ccc(O)cc1)C(=O)N[C@H](CCCCNC(=O)NCCNC(=O)c1cccnc1)C(=O)N[C@@H](CC(C)C)C(=O)N[C@@H](CCCNC(=N)N)C(=O)N1CCC[C@H]1C(=O)N[C@H](C)C(N)=O` [Example 14, NAc-D2Nal^1 -D4ClPhe^2 -D3Pal^3 -Ser^4 -NMeTyr^5 -DLys[N-epsilon-(N'-Carbonyl-Diaminoethane-N"-Nicotinyl)]^6 -Leu^7 -Arg^8 -Pro^9 -DAla^10 NH2] (Ac-[d2Nal][dPhe(4-Cl)][d3Pal]S[NMeY][dK]([CO-Ethylenediamine-Nicotinoyl])LRP[dA]-NH2), the Kb was 0.166 nM.
As for `CC(=O)N[C@H](Cc1ccc2ccccc2c1)C(=O)N[C@H](Cc1ccc(Cl)cc1)C(=O)N[C@H](Cc1cccnc1)C(=O)N[C@@H](CO)C(=O)N(C)[C@@H](Cc1ccc(O)cc1)C(=O)N[C@H](CCCCNC(=O)CNC(=O)CCCC[C@@H]1SC[C@@H]2NC(=O)N[C@@H]21)C(=O)N[C@@H](CC(C)C)C(=O)N[C@@H](CCCCNC(C)C)C(=O)N1CCC[C@H]1C(=O)N[C@H](C)C(N)=O` [Example 64, NAc-D2Nal^1 -D4ClPhe^2 -D3Pal^3 -Ser^4 -NMeTyr^5 -DLys(N-epsilon-Gly-Biotinyl)^6 -Leu^7 -Lys(N-epsilon-isopropyl)^8 -Pro^9 -DAla^10 NH2] (Ac-[d2Nal][dPhe(4-Cl)][d3Pal]S[NMeY][dK]([Gly-Biotin])L[Lys(iPr)]P[dA]-NH2), the figure is 0.0115 nM; as for `CC(=O)N[C@H](Cc1ccc2ccccc2c1)C(=O)N[C@H](Cc1ccc(Cl)cc1)C(=O)N[C@H](Cc1cccnc1)C(=O)N[C@@H](CO)C(=O)N(C)[C@@H](Cc1ccc(O)cc1)C(=O)N[C@H](CCCCNC(=O)[C@@H](C)NC(=O)C1=C[C@@H](O)[C@@H](O)[C@H](O)C1)C(=O)N[C@@H](CC(C)C)C(=O)N[C@@H](CCCNC(=N)N)C(=O)N1CCC[C@H]1C(=O)N[C@H](C)C(N)=O` [Example 38a, NAc-D2Nal^1 -D4ClPhe^2 -D3Pal^3 -Ser^4 -NMeTyr^5 -DLys(N-epsilon-DAla-Shikimyl)^6 -Leu^7 -Arg^8 -Pro^9 -DAla^10 NH2] (Ac-[d2Nal][dPhe(4-Cl)][d3Pal]S[NMeY][dK]([dA-Shikimoyl])LRP[dA]-NH2), 0.0282 nM.
As for `CC(=O)N[C@H](Cc1ccc2ccccc2c1)C(=O)N[C@H](Cc1ccc(Cl)cc1)C(=O)N[C@H](Cc1cccnc1)C(=O)N[C@@H](CO)C(=O)N(C)[C@@H](Cc1ccc(O)cc1)C(=O)N[C@H](CCCCNC(=O)NNC(=O)c1ccco1)C(=O)N[C@@H](CC(C)C)C(=O)N[C@@H](CCCCNC(C)C)C(=O)N1CCC[C@H]1C(=O)N[C@H](C)C(N)=O` [Example 2, NAc-D2Nal^1 -D4ClPhe^2 -D3Pal^3 -Ser^4 -NMeTyr^5 -DLys(N-epsilon-Azagly-2-Furoyl)^6 -Leu^7 -Lys(N-epsilon-Isopropyl)^8 -Pro^9 -DAla^10 NH2] (Ac-[d2Nal][dPhe(4-Cl)][d3Pal]S[NMeY][dK]([azaGly-2Furoyl])L[Lys(iPr)]P[dA]-NH2), the figure is 0.00141 nM.
Next, `CC(=O)N[C@H](Cc1ccc2ccccc2c1)C(=O)N[C@H](Cc1ccc(Cl)cc1)C(=O)N[C@H](Cc1cccnc1)C(=O)N[C@@H](CO)C(=O)N(C)[C@@H](Cc1ccc(O)cc1)C(=O)N[C@H](CCCCNC(=O)CCNC(=O)c1cccnc1)C(=O)N[C@@H](CC(C)C)C(=O)N[C@@H](CCCCNC(C)C)C(=O)N1CCC[C@H]1C(=O)N[C@H](C)C(N)=O` [Example 4a] (Ac-[d2Nal][dPhe(4-Cl)][d3Pal]S[NMeY][dK]([βAla-Nicotinoyl])L[Lys(iPr)]P[dA]-NH2): 0.00562 nM; `CC(=O)N[C@H](Cc1ccc2ccccc2c1)C(=O)N[C@H](Cc1ccc(Cl)cc1)C(=O)N[C@H](Cc1cccnc1)C(=O)N[C@@H](CO)C(=O)N(C)[C@@H](Cc1ccc(O)cc1)C(=O)N[C@H](CCCCNC(=O)CNC(=O)c1ccoc1)C(=O)N[C@@H](CC(C)C)C(=O)N[C@@H](CCCNC(=N)N)C(=O)N1CCC[C@H]1C(=O)N[C@H](C)C(N)=O` [Example 51a, NAc-D2Nal^1 -D4ClPhe^2 -D3Pal^3 -Ser^4 -NMeTyr^5 -DLys(N-epsilon-Gly-3-Furoyl)^6 -Leu^7 -Arg^8 -Pro^9 -DAla^1 -NH2] (Ac-[d2Nal][dPhe(4-Cl)][d3Pal]S[NMeY][dK]([Gly-X2])LRP[dA]-NH2): 0.011 nM.
